This is an account of results in patent US8486966B2, “9-(pyrazol-3-yl)-9H-purine-2-amine and 3-(pyrazol-3-yl) -3H-imidazo[4,5-B] pyridin-5-amine derivatives and their use for the treatment of cancer” (Astrazeneca AB, priority 2007, dated 2013).

The target in one assay is human Trk A kinase (Homo sapiens (Human), UniProt P04629). Description: Trk A kinase Alphascreen assay. The assay is classed as biochemical. As to conditions: 0.838 ng/ml Trk A, 70 μM ATP, 20 minutes, room temperature; read-out: Trk inhibitory activity IC50. The protocol:
Trk A kinase activity was determined by measuring the kinase's ability to phosphorylate synthetic tyrosine residues within a generic polypeptide substrate using an Amplified Luminescent Proximity Assay (Alphascreen) technology (PerkinElmer, 549 Albany Street, Boston, Mass.).
To measure Trk A kinase activity, the intracellular domain of a HIS-tagged human Trk A kinase (amino acids 442-796 of Trk A, Swiss-Prot Primary Accession Number P04629) may be expressed in SF9 cells and purified using standard nickel column chromatography. After incubation of the kinase with a biotinylated substrate and adenosine triphosphate (ATP) for 20 minutes at room temperature, the kinase reaction may be stopped by the addition of 30 mM ethylenediaminetetraacetic acid (EDTA). The reaction may be performed in 384 well microtitre plates and the reaction products may be detected with the addition of strepavidin coated Donor Beads and phosphotyrosine-specific antibodies coated Acceptor Beads using the EnVision Multilabel Plate Reader after an overnight incubation at room temperature.
On the technique in general: Bead proximity is the source of the signal in Alpha formats.

In a further assay the target is human JAK2 (Homo sapiens (Human), UniProt O60674). Description: JAK2 kinase Alphascreen assay. Particulars: 150 pM JAK2 enzyme, 15 μM ATP, 60 minutes, room temperature; read-out: JAK inhibitory activity IC50. The assay is classed as biochemical. As for the experimental part: JAK2 kinase activity was determined by measuring the kinase's ability to phosphorylate synthetic tyrosine residues within a generic polypeptide substrate using an Amplified Luminescent Proximity Assay (Alphascreen) technology (PerkinElmer, 549 Albany Street, Boston, Mass.).
To measure JAK2 kinase activity, a commercially available purified enzyme may be used. The enzyme may be a C-terminal His6-tagged, recombinant, human JAK2, amino acids 808-end, (Genbank Accession number NM 004972) expressed by baculovirus in Sf21 cells (Upstate Biotechnology MA). After incubation of the kinase with a biotinylated substrate and adenosine triphosphate (ATP) for 60 minutes at room temperature, the kinase reaction may be stopped by the addition of 30 mM ethylenediaminetetraacetic acid (EDTA). The reaction may be performed in 384 well microtitre plates and the reaction products may be detected with the addition of streptavidin coated Donor Beads and phosphotyrosine-specific antibodies coated Acceptor Beads using the EnVision Multilabel Plate Reader after an overnight incubation at room temperature.

Sequence of human Trk A kinase (P04629 442-796): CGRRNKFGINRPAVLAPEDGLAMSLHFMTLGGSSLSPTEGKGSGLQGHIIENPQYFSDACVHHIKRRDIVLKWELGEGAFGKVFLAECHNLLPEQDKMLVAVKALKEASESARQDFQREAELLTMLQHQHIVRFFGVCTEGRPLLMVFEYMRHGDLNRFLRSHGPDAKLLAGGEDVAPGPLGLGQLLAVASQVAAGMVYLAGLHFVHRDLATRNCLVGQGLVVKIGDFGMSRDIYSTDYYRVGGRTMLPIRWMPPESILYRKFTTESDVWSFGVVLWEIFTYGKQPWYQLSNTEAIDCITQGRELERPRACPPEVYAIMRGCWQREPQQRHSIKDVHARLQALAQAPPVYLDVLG
Sequence of human JAK2 (O60674 808-1132 limits assumed): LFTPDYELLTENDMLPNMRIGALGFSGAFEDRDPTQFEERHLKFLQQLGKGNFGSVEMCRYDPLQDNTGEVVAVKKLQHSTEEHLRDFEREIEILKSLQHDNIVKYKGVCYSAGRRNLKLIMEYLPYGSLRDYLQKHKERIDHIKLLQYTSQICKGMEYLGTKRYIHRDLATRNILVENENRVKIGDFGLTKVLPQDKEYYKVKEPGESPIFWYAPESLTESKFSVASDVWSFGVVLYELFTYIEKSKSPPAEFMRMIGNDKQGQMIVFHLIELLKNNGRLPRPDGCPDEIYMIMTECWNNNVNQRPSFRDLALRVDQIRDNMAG

`CC(C)Oc1cc(-n2cnc3cnc(N[C@@H](C)c4ncc(F)cn4)nc32)n[nH]1` [Example 12, N-[(1S)-1-(5-Fluoropyrimidin-2-yl)ethyl]-9-(5-isopropoxy-1H-pyrazol-3-yl)-9H-purin-2-amine]: the IC50 (commonly the concentration that gives 50% inhibition) on human Trk A kinase worked out at 3 nM. Consider `CC(C)Oc1cc(-n2cnc3ccc(N[C@@H](CO)c4ccc(F)cn4)nc32)n[nH]1` [Example 7, (2R)-2-(5-Fluoropyridin-2-yl)-2-{[3-(5-isopropoxy-1H-pyrazol-3-yl)-3H-imidazo[4,5-b]pyridin-5-yl]amino}ethanol], for which the half-inhibitory concentration (IC50) on human Trk A kinase amounted to 3 nM.

For `Cc1cc(-n2cnc3ccc(N[C@@H](C)c4ccc(F)cn4)nc32)n[nH]1` [Example 17, N-[(1S)-1-(5-Fluoropyridin-2-yl)ethyl]-3-(5-methyl-1H-pyrazol-3-yl)-3H-imidazo[4,5-b]pyridin-5-amine], the IC50 at human JAK2 turned out to be 3 nM; on human Trk A kinase it was 14 nM. Consider `Cc1cc(-n2cnc3cc(F)c(N[C@@H](C)c4ncc(F)cn4)nc32)n[nH]1` [Example 15, 6-Fluoro-N-[(1S)-1-(5-fluoropyrimidin-2-yl)ethyl]-3-(5-methyl-1H-pyrazol-3-yl)-3H-imidazo[4,5-b]pyridin-5-amine], for which the IC50 at human Trk A kinase amounted to 3810 nM.

As for `Cc1cc(-n2cnc3c(C(=O)N4CCOCC4)nc(N[C@@H](C)c4ncc(F)cn4)nc32)n[nH]1` [Example 19, N-[(1S)-1-(5-Fluoropyrimidin-2-yl)ethyl]-9-(5-methyl-1H-pyrazol-3-yl)-6-(morpholin-4-ylcarbonyl)-9H-purin-2-amine], on human Trk A kinase, the IC50 is 7250 nM. Still for that read-out and setting: the value for `Cc1cc(-n2cnc3ccc(N[C@@H](C)c4ncc(F)cn4)nc32)n[nH]1` [Example 16, N-[(1S)-1-(5-Fluoropyrimidin-2-yl)ethyl]-3-(5-methyl-1H-pyrazol-3-yl)-3H-imidazo[4,5-b]pyridin-5-amine] was 61 nM. Regarding `CCOc1cc(-n2cnc3ccc(N[C@@H](CO)c4ccc(F)cn4)nc32)n[nH]1` [Example 8, (2R)-2-{[3-(5-Ethoxy-1H-pyrazol-3-yl)-3H-imidazo[4,5-b]pyridin-5-yl]amino}-2-(5-fluoropyridin-2-yl)ethanol], the IC50 on human Trk A kinase amounted to 3 nM. The same measure, in the same setting: the value for `CCOc1cc(-n2cnc3ccc(N[C@@H](C)c4ncc(F)cn4)nc32)n[nH]1` [Example 9, 3-(5-Ethoxy-1H-pyrazol-3-yl)-N-[(1S)-1-(5-fluoropyrimidin-2-yl)ethyl]-3H-imidazo[4,5-b]pyridin-5-amine] was 3 nM; that for `CCOc1cc(-n2cnc3ccc(N[C@@H](C)c4ccc(F)cn4)nc32)n[nH]1` [Example 10, 3-(5-Ethoxy-1H-pyrazol-3-yl)-N-[(1S)-1-(5-fluoropyridin-2-yl)ethyl]-3H-imidazo[4,5-b]pyridin-5-amine] was 3 nM. On the same count and under the same terms, the value for `CCOc1cc(-n2cnc3ccc(N[C@@H](CC)c4ccc(F)cn4)nc32)n[nH]1` [Example 23, 3-(5-Ethoxy-1H-pyrazol-3-yl)-N-[(1S)-1-(5-fluoropyridin-2-yl)propyl]-3H-imidazo[4,5-b]pyridin-5-amine] was 3 nM.

For `Cc1cc(-n2cnc3c(N4CCOCC4)nc(N[C@@H](C)c4ccc(F)cn4)nc32)n[nH]1` [Example 22, N-[(1S)-1-(5-Fluoropyridin-2-yl)ethyl]-9-(5-methyl-1H-pyrazol-3-yl)-6-morpholin-4-yl-9H-purin-2-amine], the IC50 on human Trk A kinase was 773 nM. Consider `CC(C)Oc1cc(-n2cnc3cc(Cl)c(N[C@@H](C)c4ccc(F)cn4)nc32)n[nH]1` [Example 14, 6-Chloro-N-[(1S)-1-(5-fluoropyridin-2-yl)ethyl]-3-(5-isopropoxy-1H-pyrazol-3-yl)-3H-imidazo[4,5-b]pyridin-5-amine], for which, at human Trk A kinase, the IC50 came to 4 nM. Still for that read-out and setting: then `C[C@H](Nc1ccc2ncn(-c3cc(C4CC4)[nH]n3)c2n1)c1ccc(F)cn1` [Example 2, 3-(5-Cyclopropyl-1H-pyrazol-3-yl)-N-[(1S)-1-(5-fluoropyridin-2-yl)ethyl]-3H-imidazo[4,5-b]pyridin-5-amine], with 3 nM.

As to `CC[C@H](Nc1ccc2ncn(-c3cc(OC(C)C)[nH]n3)c2n1)c1ccc(F)cn1` [Example 13, N-[(1S)-1-(5-Fluoropyridin-2-yl)propyl]-3-(5-isopropoxy-1H-pyrazol-3-yl)-3H-imidazo[4,5-b]pyridin-5-amine], the IC50 at human Trk A kinase was 6 nM. Turning to `C[C@H](Nc1ncc2ncn(-c3cc(C4CC4)[nH]n3)c2n1)c1ncc(F)cn1` [Example 4, 9-(5-Cyclopropyl-1H-pyrazol-3-yl)-N-[(1S)-1-(5-fluoropyrimidin-2-yl)ethyl]-9H-purin-2-amine], the IC50 at human Trk A kinase was 12 nM. Same read-out and setting: the value for `CC(C)Oc1cc(-n2cnc3ccc(N[C@@H](C)c4ccc(F)cn4)nc32)n[nH]1` [Example 1, N-[(1S)-1-(5-fluoropyridin-2-yl)ethyl]-3-(5-isopropoxy-1H-pyrazol-3-yl)-3H-imidazo[4,5-b]pyridin-5-amine] was 3 nM; that for `CC(C)Oc1cc(-n2cnc3ccc(N[C@@H](C)c4ncc(F)cn4)nc32)n[nH]1` [Example 6, N-[(1S)-1-(5-Fluoropyrimidin-2-yl)ethyl]-3-(5-isopropoxy-1H-pyrazol-3-yl)-3H-imidazo[4,5-b]pyridin-5-amine] was 3 nM; that for `C[C@H](Nc1ncc2ncn(-c3cc(C4CC4)[nH]n3)c2n1)c1ccc(F)cn1` [Example 5, 9-(5-Cyclopropyl-1H-pyrazol-3-yl)-N-[(1S)-1-(5-fluoropyridin-2-yl)ethyl]-9H-purin-2-amine] was 5 nM.

As for `COc1nc(N[C@@H](C)c2ccc(F)cn2)nc2c1ncn2-c1cc(C)[nH]n1` [Example 21, N-[(1S)-1-(5-Fluoropyridin-2-yl)ethyl]-6-methoxy-9-(5-methyl-1H-pyrazol-3-yl)-9H-purin-2-amine], at human Trk A kinase, the IC50 was 96 nM. As to `CC(C)Oc1cc(-n2cnc3cnc(N[C@@H](C)c4ccc(F)cn4)nc32)n[nH]1` [Example 11, N-[(1S)-1-(5-Fluoropyridin-2-yl)ethyl]-9-(5-isopropoxy-1H-pyrazol-3-yl)-9H-purin-2-amine], at human Trk A kinase, the 50% inhibitory concentration (IC50) is 3 nM.

Regarding `Cc1cc(-n2cnc3c(NC4CCOCC4)nc(N[C@@H](C)c4ccc(F)cn4)nc32)n[nH]1` [Example 20, N^2-[(1S)-1-(5-Fluoropyridin-2-yl)ethyl]-9-(5-methyl-1H-pyrazol-3-yl)-N^6-(tetrahydro-2H-pyran-4-yl)-9H-purine-2,6-diamine], the IC50 on human Trk A kinase was found to be 475 nM. The same measure, in the same setting: then `Cc1cc(-n2cnc3cnc(N[C@@H](C)c4ccc(F)cn4)nc32)n[nH]1` [Example 18, N-[(1S)-1-(5-Fluoropyridin-2-yl)ethyl]-9-(5-methyl-1H-pyrazol-3-yl)-9H-purin-2-amine], with 311 nM.
